Assay [1] deals with advanced or recurrent oral cavity cancer. The assay can be described thus: Tumor immunity risk index value, OS and disease course in oral cavity cancer patients given propagermanium. Particulars: for OS: BSC median 46 days. The class given is in vivo, human. As for the experimental part: 30 mg of propagermanium [trade name: SEROCION (registered trademark), produced by SANWA KAGAKU KENKYUSHO CO., LTD.] was administered orally in three divided doses per day after meals to 4 patient cases (PG-1 to PG-4) who were diagnosed as advanced or recurrent oral cavity cancer which is non-responsive or non-tolerant to the standard chemotherapy and incurable and unresectable, a 2 patient cases (PG-5 and PG-6) who were diagnosed as advanced or recurrent gastric cancer which is non-responsive or non-tolerant to the standard chemotherapy [gastric cancer treatment guideline fourth edition (edited by Japan Gastric cancer Association, revised in May 2014)] and incurable and unresectable, and 5 healthy person cases (PG-7 to PG-11). 7.5 mL of peripheral blood of the cancer patients (PG-1 and PG-3: only before administration, PG-5 and PG-6: before administration and only 28th day after a start of administration) and healthy persons (all: only before the administration), were collected by a BD vacutainer blood collection tube at the time before the administration of the propagermanium and on 28th and 56th days after starting the administration. Thereafter, and the peripheral blood was centrifuged (1500 G for 15 minutes) to obtain the peripheral blood mononuclear cells (PBMC). The obtained peripheral blood mononuclear cells were fixed and stained using a T cell surface marker and a mouse IgG anti-human antibody against intracellular keratin. The stained cells were analyzed by flow cytometry using a Spectral Cell Analyzer (SP-6800, manufactured by SONY).
Regarding the T cells and the cytotoxic T cells, among living cells, CD45 positive and CD3 positive cells are separated to obtain T cells, and among the CD45 positive and CD3 positive cells, CD8 positive and CD4 negative cells are separated to obtain the cytotoxic T cells. The proportion of the cytotoxic T cells in the T cells was calculated.
In the circulating tumor cells in blood, in order to label the cytokeratin present inside the cells, after using Perm Buffer reagent (#421403, produced by BioLegend), staining was performed using a pankeratin antibody (#4523, produced by Cell Signaling). Since the circulating tumor cells in blood are larger than lymphocytes, when flow cytometry is performed, cells were selected in a wider range than in the selection of normal lymphocytes. After selecting cells negative in staining using Ghost Dye Violet 450 as living cells, pankeratin positive cells were regarded as the circulating tumor cells in blood, and the number of the pankeratin positive cells in 10000 peripheral blood mononuclear cells was calculated.
The calculated number of the pankeratin positive cells and the proportion of cytotoxic T cells in the T cells is substituted into Expression (1) below.
Number of pankeratin positive cells (pieces)/Proportion of cytotoxic T cells in T cells (%)/10 (I)
The disease of each patient was determined by an attending physician based on results of endoscopy, computed tomography (CT) examination, positron emission tomography (PET)-CT examination, magnetic resonance imaging (MRI) examination, X-ray (X-P) examination, and blood biochemistry examination including the major markers.

In assay [2] the test system is human gastric cancer cell line MKN45 (MKN45 KO cells). Nature of the assay: Apoptosis-inducing activity by PBMC of oral cavity cancer patient after administration of propagermanium. The assay is classed as cell-based. Particulars: for Increase of apoptosis-inducing activity compared to before starting the administration: time point of 48 hours. As for the experimental part: MKN45 KO cells obtained by fluorescently labeling human gastric cancer cell line MKN45 with Kurabira Orange (1×10^4 cells) were cultured using an RPMI 1640 medium containing 10% FBS in 35 mm dishes (Day 0). On next day (Day 1), the medium was changed to an F12-K medium (2 mL) containing 10% FBS, and in Experimental Example 5, a suspension of peripheral blood mononuclear cells (1×10^6 cells) separated from peripheral blood of the oral cavity cancer patient of PG-4 before the administration of the propagermanium and on 28th and 56th days after the administration in F12-K medium (1 mL) is added to the culture dish. Furthermore, 3 μL of IncuCyte (registered trademark) Caspase-3/7 Green Apoptpsis Reagent (Cat No. 4440, produced by Essen BioScience) was added and cultured. Time-lapse photography was performed every 10 minutes for 48 hours, by using BioStation (produced by Nikon Corporation) (Days 1 to 3). An animation was created from result of photography for 48 hours, and the numbers of viable gastric cancer cells (with orange fluorescence) at and apoptosis-induced gastric cancer cells (with green fluorescence) at the time points of 0, 8, 16, 24, 32, 40, and 48 hours were calculated respectively. When calculating the number of cells, 100 to 150 cells were targeted at time point of 48 hours, and cells of 4 to 5 fields of view were summed at 200 times observation by a microscope at each time point. In addition, at each time point, only cells that adhered to the culture dish and could be continuously observed were targeted for counting, and cells that were slightly out of an imaging field of stratified cells were excluded from counting.
The apoptosis-inducing activity (%) at each time point was calculated by using Expression (II) below.
{Number of apoptosis-induced gastric cancer cells/(Number of viable gastric cancer cells+Number of apoptosis-induced gastric cancer cells)}×100 (II)

[3] abbreviates: patient PG-2 (oral cavity cancer).

The record followed here is patent publication US20200268703A1, “MEDICINE FOR TREATING ADVANCED OR RECURRENT CANCER PATIENT BEING NON-RESPONSIVE OR NON-TOLERANT TO STANDARD CHEMOTHERAPY AND INCURABLE AND UNRESECTABLE” (HYOGO COLLEGE OF MEDICINE, priority 2017, published 2020).

As to propagermanium, the “Evaluation of the administration (effective / ineffective)” value is “ineffective” in assay [1] (patient PG-1 (oral cavity cancer)), “effective” in assay [1] (setting [3]), “ineffective” in assay [1] (patient PG-3 (oral cavity cancer)) and “effective” in assay [1] (patient PG-4 (oral cavity cancer)). Moreover, the OS amounted to 39 days in assay [1] (patient PG-1 (oral cavity cancer), administration discontinued midway); 105 days in assay [1] (setting [3]); 36 days in assay [1] (patient PG-3 (oral cavity cancer), administration discontinued midway); 85 days in assay [1] (patient PG-4 (oral cavity cancer), counted before the chemotherapy intervention). In addition, the Disease course result in assay [1] (patient PG-1 (oral cavity cancer), from the start of administration) is listed as “disease got worse”; in assay [1] (patient PG-2 (oral cavity cancer), 28th day after starting administration), “disease was controlled”; in assay [1] (patient PG-3 (oral cavity cancer), from the start of administration), “disease got worse”; in assay [1] (patient PG-4 (oral cavity cancer), 28th and 56th days after starting administration), “disease was controlled at any time point”. The “Tumor immunity risk index value” in assay [1] (patient PG-2 (oral cavity cancer), 28th day after starting administration, before 0.27) is listed as 1.70; in assay [1] (patient PG-2 (oral cavity cancer), 56th day after starting administration, before 0.27) it was 4.93; in assay [1] (patient PG-4 (oral cavity cancer), 28th day after starting administration, before 2.07), 0.49; in assay [1] (patient PG-4 (oral cavity cancer), 56th day after starting administration, before 2.07), 1.77. Also, the results for the “Increase of apoptosis-inducing activity compared to before starting the administration” value in assay [2] (28th day after starting administration) and in assay [2] (56th day after starting administration) were “approximately 3.1 times” and “approximately 3.7 times”, respectively. The Apoptosis-inducing activity in assay [2] (PBMC of patient PG-4, 28th day after starting administration, culture for 0 hours) came out at 0.00%; in assay [2] (PBMC of patient PG-4, 28th day after starting administration, culture for 48 hours, before administration 4.00), 12.50%; in assay [2] (PBMC of patient PG-4, 56th day after starting administration, culture for 0 hours), 0.00%; in assay [2] (PBMC of patient PG-4, 56th day after starting administration, culture for 48 hours, before administration 4.00), 14.60%.
